Measurements reported in US20250144078A1, “THIOSTREPTON-INSPIRED COMPOUNDS FOR TREATMENT OF CANCER AND PREPARATION THEREOF” (RS Oncology, llc, priority 2022, published 2025).
pIC50: −log10 of the molar value. Structures can show the parent of a compound that is named as a salt.

Legend:
PRX3 = target: T1, PRX3 (Homo sapiens, UniProt P30048); assay: PRX3 crosslinking study (western blot) in Malignant Mesothelioma cells; assay type: cell-based; settings: H-MESO cells treated 24 hours, reducing SDS-PAGE, anti-PRX3 western blot; TS at 2.5 or 5 μM
T1 construct: endogenous in cells; host or cells: H-MESO (HMESO) malignant mesothelioma cell line
T1 sequence (P30048 62-256): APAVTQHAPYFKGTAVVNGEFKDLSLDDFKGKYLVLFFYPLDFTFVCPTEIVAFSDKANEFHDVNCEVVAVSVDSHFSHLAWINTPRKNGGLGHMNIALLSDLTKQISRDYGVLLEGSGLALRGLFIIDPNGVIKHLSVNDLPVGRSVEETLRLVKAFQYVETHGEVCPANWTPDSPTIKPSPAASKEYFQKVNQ
Protocol: Malignant Mesothelioma (MM) cells (H-MESO cell line) were plated into 6-well plates in complete tissue culture media. Cells were allowed to adhere for 24 hours before being treated with indicated concentrations of thiostrepton (TS), (1) or (5) (DMSO Stocks) for 24 hours. Cell lysates were generated using standard RIPA buffer, protein concentrations were determined using a Bradford Assay and 20 μg of total protein per sample were separated by reducing SDS-Polyacrylamide Gel Electrophoresis. Proteins were transferred to a PVDF membrane, blocked with 5% Bovine Serum Albumin (BSA) for 1 hour and incubated with PRX3 primary antibody overnight at 4° C. in 1× Tris Buffered Saline with Tween (TBST). Membranes were washed 3× with 1×TBST and incubated with horseradish peroxidase conjugated (HRP) secondary antibody for 1 hour at room temperature. Membranes were washed 3× in 1×TBST and HRP signal was developed using Enhanced Chemiluminescence and visualized on a GE digital imager.

HMESO mesothelioma cells = assay: Cell viability study (crystal violet) in HMESO mesothelioma cells; assay type: cell-based; settings: Homo sapiens, 48 h incubation, read-out: IC50 (Concentration of drug required to kill 50% of cells)
Protocol: (§1) FIG. 1: Cell viability assay data in Malignant Mesothelioma (MM) cells (HMESO cell line) treated with compound (1)-HCl or (5)-HCl. N=2 technical and 2 biological replicates conducted by 2 different lab technicians. All compounds went into solution in 100% DMSO. (5)-HCl precipitated at concentrations of ˜20-80 μM when added to complete tissue culture media.
Cell Lines were plated in 96-well plates (Corning, Kennebunk, ME, USA) at a density of 2500 cells per well. The following day, cells were treated with test compounds diluted in complete media followed by incubation for 48 h. Post-incubation cells were washed with PBS (Corning Cellgro, Manassas, VA, USA), fixed with 3.0% formaldehyde (Fisher BioReagents, Fair Lawn, NJ, USA) in PBS, and stained for 30 min with 0.1% crystal violet (Acros Organics, Fair Lawn, NJ, USA) in water. Crystal violet stain was removed, and plates were washed with H2O and allowed to dry. To quantify cell viability, plates were imaged using the Lionheart Plate reader (BioTek Instruments, Winooski, VT, USA) and/or analyzed by absorbance at 540 nm (crystal violet dye dissolved in 100% methanol) using the Synergy HTX plate reader (BioTek Instruments, Winooski, VT, USA). […]

[1] = Behaviour of compounds in DMSO and in complete tissue culture media; assay type: physicochemical; settings: from DMSO stock
Protocol: as §1

C=C(NC(=O)C(=C)NC(=O)c1csc(-c2ccc(N)cc2)n1)C(N)=O [(1)-HCl, N-(3-((3-amino-3-oxoprop-1-en-2-yl)amino)-3-oxoprop-1-en-2-yl)-2-(4-aminophenyl)thiazole-4-carboxamide hydrochloride]
covalent PRX3 crosslinking (PRX3-X-PRX3) (PRX3): No PRX3-X-PRX3 crosslinking was observed
pIC50 (HMESO mesothelioma cells): 3.13

C=C(NC(=O)c1csc(-c2ccc(N)cc2)n1)C(=O)NC(=C)C(=O)OC [(5)-HCl, Methyl 2-(2-(2-(4-aminophenyl)thiazole-4-carboxamido)acrylamido)acrylate hydrochloride]
covalent PRX3 crosslinking (PRX3-X-PRX3) (PRX3): Similar, yet less robust, results
concentrations at which compound precipitated when added to complete tissue culture media [1]: 20 to 80 µM

C=C(NC(=O)C(=C)NC(=O)c1csc(C2=N[C@@H]3c4csc(n4)[C@H]4NC(=O)c5csc(n5)[C@H]([C@](C)(O)[C@@H](C)O)NC(=O)[C@H]5CSC(=N5)/C(=C/C)NC(=O)[C@H]([C@@H](C)O)NC(=O)c5csc(n5)[C@]3(CC2)NC(=O)[C@H](C)NC(=O)C(=C)NC(=O)[C@H](C)NC(=O)[C@H]([C@@H](C)CC)N[C@@H]2C=Cc3c([C@H](C)O)cc(nc3[C@H]2O)C(=O)O[C@@H]4C)n1)C(N)=O [TS, thiostrepton]
covalent PRX3 crosslinking (PRX3-X-PRX3) (PRX3): resulted in covalent PRX3 crosslinking
pIC50 (HMESO mesothelioma cells): 5.99
